Source: ChEMBL document CHEMBL4680060, “Polybasic peptide-levofloxacin conjugates potentiate fluoroquinolones and other classes of antibiotics against multidrug-resistant Gram-negative bacteria” (Medchemcomm, 2019)
Activity calls are given as the source filed them. The calls are words filed in the database; no cut-off is given here.

Columns and labels:
[1] = system: Pseudomonas aeruginosa; experiment: Additive antibacterial activity against MexAB-OprM efflux pump deficient Pseudomonas aeruginosa PAO200 in presence of ciprofloxacin by Checkerboard assay; format: functional, organism-based
[2] = system: Pseudomonas aeruginosa; experiment: Synergistic antibacterial activity against wild type Pseudomonas aeruginosa PAO1 assessed as fractional inhibitory concentration index in presence of levofloxacin by Checkerboard assay; format: functional
[3] = system: Pseudomonas aeruginosa; experiment: Potentiation of levofloxacin-induced antibacterial activity against wild type Pseudomonas aeruginosa PAO1 assessed as […] measured after 18 hrs by CLSI protocol based microbroth dilution method relative to levofloxacin MIC; format: functional
[4] = system: Pseudomonas aeruginosa; experiment: Potentiation of rifampicin-induced antibacterial activity against wild type Pseudomonas aeruginosa PAO1 measured after 18 hrs by CLSI protocol based microbroth dilution method; format: functional, organism-based
[5] = system: Pseudomonas aeruginosa; experiment: Synergistic antibacterial activity against multidrug resistant Pseudomonas aeruginosa PA264 in presence of moxifloxacin by Checkerboard assay; format: functional, organism-based
[6] = system: Pseudomonas aeruginosa; experiment: Potentiation of ciprofloxacin-induced antibacterial activity against wild type Pseudomonas aeruginosa PAO1 assessed as fold reduction in ciprofloxacin MIC measured after 18 hrs by CLSI protocol based microbroth dilution method relative to ciprofloxacin MIC; format: functional
[7] = system: Pseudomonas aeruginosa; experiment: Synergistic antibacterial activity against multidrug resistant Pseudomonas aeruginosa PA262 in presence of moxifloxacin by Checkerboard assay; format: functional, organism-based
[8] = system: Pseudomonas aeruginosa; experiment: Potentiation of vancomycin-induced antibacterial activity against wild type Pseudomonas aeruginosa PAO1 measured after 18 hrs by CLSI protocol based microbroth dilution method; format: functional, organism-based
[9] = system: Pseudomonas aeruginosa; experiment: Potentiation of ceftazidime-induced antibacterial activity against wild type Pseudomonas aeruginosa PAO1 measured after 18 hrs by CLSI protocol based microbroth dilution method; format: functional, organism-based
[10] = system: Pseudomonas aeruginosa; experiment: Synergistic antibacterial activity against multidrug resistant Pseudomonas aeruginosa PA101885 in presence of ciprofloxacin by Checkerboard assay; format: functional, organism-based
[11] = system: Pseudomonas aeruginosa; experiment: Potentiation of pleuromutilin-induced antibacterial activity against wild type Pseudomonas aeruginosa PAO1 measured after 18 hrs by CLSI protocol based microbroth dilution method; format: functional, organism-based
[12] = system: Acinetobacter baumannii; experiment: Synergistic antibacterial activity against multidrug resistant Acinetobacter baumannii AB027 assessed as fractional inhibitory concentration index in presence of levofloxacin by Checkerboard assay; format: functional
[13] = system: Escherichia coli; experiment: Synergistic antibacterial activity against Escherichia coli 107115 in presence of levofloxacin by Checkerboard assay; format: functional, organism-based
[14] = system: Escherichia coli; experiment: Synergistic antibacterial activity against Escherichia coli 94474 in presence of levofloxacin by Checkerboard assay; format: functional, organism-based
[15] = system: Pseudomonas aeruginosa; experiment: Potentiation of linezolid-induced antibacterial activity against wild type Pseudomonas aeruginosa PAO1 measured after 18 hrs by CLSI protocol based microbroth dilution method; format: functional, organism-based
[16] = system: Pseudomonas aeruginosa; experiment: Additive antibacterial activity against MexAB-OprM efflux pump deficient Pseudomonas aeruginosa PAO200 in presence of levofloxacin by Checkerboard assay; format: functional, organism-based
[17] = system: Pseudomonas aeruginosa; experiment: Synergistic antibacterial activity against multidrug resistant Pseudomonas aeruginosa PA101885 in presence of levofloxacin by Checkerboard assay; format: functional, organism-based
[18] = system: Pseudomonas aeruginosa; experiment: Antibacterial activity against Pseudomonas aeruginosa ATCC 27853 assessed as inhibition of visible growth incubated for 18 hrs by CLSI protocol based microbroth dilution method; format: functional
[19] = system: Pseudomonas aeruginosa; experiment: Synergistic antibacterial activity against multidrug resistant Pseudomonas aeruginosa PA262 in presence of ciprofloxacin by Checkerboard assay; format: functional, organism-based
[20] = system: Pseudomonas aeruginosa; experiment: Synergistic antibacterial activity against multidrug resistant Pseudomonas aeruginosa PA260 in presence of ciprofloxacin by Checkerboard assay; format: functional, organism-based
[21] = system: Pseudomonas aeruginosa; experiment: Synergistic antibacterial activity against wild type Pseudomonas aeruginosa PAO1 in presence of ciprofloxacin by Checkerboard assay; format: functional, organism-based
[22] = system: Pseudomonas aeruginosa; experiment: Potentiation of minocycline-induced antibacterial activity against wild type Pseudomonas aeruginosa PAO1 measured after 18 hrs by CLSI protocol based microbroth dilution method; format: functional, organism-based
[23] = system: Escherichia coli; experiment: Additive antibacterial activity against Escherichia coli 94393 in presence of ciprofloxacin by Checkerboard assay; format: functional, organism-based
[24] = system: Pseudomonas aeruginosa; experiment: Potentiation of chloramphenicol-induced antibacterial activity against wild type Pseudomonas aeruginosa PAO1 measured after 18 hrs by CLSI protocol based microbroth dilution method; format: functional, organism-based
[25] = system: Escherichia coli; experiment: Synergistic antibacterial activity against Escherichia coli 107115 in presence of moxifloxacin by Checkerboard assay; format: functional, organism-based
[26] = system: Klebsiella pneumoniae; experiment: Synergistic antibacterial activity against Klebsiella pneumoniae 116381 in presence of levofloxacin by Checkerboard assay; format: functional, organism-based
[27] = system: Streptococcus pneumoniae; experiment: Antibacterial activity against Streptococcus pneumoniae ATCC 49619 assessed as inhibition of visible growth incubated for 18 hrs by CLSI protocol based microbroth dilution method; format: functional
[28] = system: Escherichia coli; experiment: Additive antibacterial activity against Escherichia coli ATCC 25922 in presence of ciprofloxacin by Checkerboard assay; format: functional, organism-based
[29] = system: Escherichia coli; experiment: Synergistic antibacterial activity against Escherichia coli 94474 in presence of moxifloxacin by Checkerboard assay; format: functional, organism-based
[30] = system: Pseudomonas aeruginosa; experiment: Synergistic antibacterial activity against multidrug resistant Pseudomonas aeruginosa PA259 in presence of levofloxacin by Checkerboard assay; format: functional, organism-based
[31] = system: Acinetobacter baumannii; experiment: Synergistic antibacterial activity against Acinetobacter baumannii ATCC 17978 in presence of moxifloxacin by Checkerboard assay; format: functional, organism-based
[32] = system: Pseudomonas aeruginosa; experiment: Synergistic antibacterial activity against multidrug resistant Pseudomonas aeruginosa PA260 in presence of levofloxacin by Checkerboard assay; format: functional, organism-based
[33] = system: Pseudomonas aeruginosa; experiment: Synergistic antibacterial activity against wild type Pseudomonas aeruginosa PAO1 assessed as fractional inhibitory concentration index in presence of ciprofloxacin by Checkerboard assay; format: functional
[34] = system: Pseudomonas aeruginosa; experiment: Potentiation of ciprofloxacin-induced antibacterial activity against wild type Pseudomonas aeruginosa PAO1 assessed as ciprofloxacin MIC measured after 18 hrs by CLSI protocol based microbroth dilution method (reference value: 0.125 ug/ml); format: functional
[35] = system: Acinetobacter baumannii; experiment: Synergistic antibacterial activity against multidrug resistant Acinetobacter baumannii AB027 assessed as fractional inhibitory concentration index in presence of ciprofloxacin by Checkerboard assay; format: functional
[36] = system: Pseudomonas aeruginosa; experiment: Potentiation of fosfomycin-induced antibacterial activity against wild type Pseudomonas aeruginosa PAO1 measured after 18 hrs by CLSI protocol based microbroth dilution method; format: functional, organism-based
[37] = system: Pseudomonas aeruginosa; experiment: Synergistic antibacterial activity against multidrug resistant Pseudomonas aeruginosa PA100036 in presence of levofloxacin by Checkerboard assay; format: functional, organism-based
[38] = system: Stenotrophomonas maltophilia; experiment: Antibacterial activity against Stenotrophomonas maltophilia clinical isolate CAN-ICU 62584 assessed as inhibition of visible growth incubated for 18 hrs by CLSI protocol based microbroth dilution method; format: functional
[39] = system: Pseudomonas aeruginosa; experiment: Synergistic antibacterial activity against wild type Pseudomonas aeruginosa PAO1 assessed as fractional inhibitory concentration index in presence of moxifloxacin by Checkerboard assay; format: functional

Structure (SMILES): C[C@H]1COc2c(N3CCN(C)CC3)c(F)cc3c(=O)c(C(=O)NCCCCCCCCCCCC(=O)N[C@@H](CCN)C(=O)N[C@@H](CCN)C(N)=O)cn1c23
- Activity [1]: Active
- fractional inhibitory concentration index (FICI) [2]: 0.5
- Ratio [3]: 4
- Activity [4]: Active
- Activity [5]: Active
- Ratio [6]: 4
- Activity [7]: Active
- Activity [8]: Active
- Activity [9]: Active
- Activity [10]: Active
- Activity [11]: Active
- fractional inhibitory concentration index (FICI) [12]: 0.37
- Activity [13]: Active
- Activity [14]: Active
- Activity [15]: Active
- Activity [16]: Active
- Activity [17]: Active
- MIC [18]: > 128 µg/mL
- Activity [19]: Active
- Activity [20]: Active
- Activity [21]: Active
- Activity [22]: Active
- Activity [23]: Active
- Activity [24]: Active
- Activity [25]: Active
- Activity [26]: Active
- MIC [27]: > 128 µg/mL
- Activity [28]: Active
- Activity [29]: Active
- Activity [30]: Active
- Activity [31]: inactive
- Activity [32]: Active
- fractional inhibitory concentration index (FICI) [33]: 0.313
- MIC [34]: 0.031 µg/mL
- fractional inhibitory concentration index (FICI) [35]: 0.37
- Activity [36]: Active
- Activity [37]: Active
- MIC [38]: > 128 µg/mL
- fractional inhibitory concentration index (FICI) [39]: 0.5
